Test results: patent US5688830A, “Treatment of neuropathic pain” (Syntex (U.S.A.) Inc., priority 1997, dated 1997)
Like-named read-outs stand apart in the source and are kept apart here.

Tests used:
[1] = test system: cold allodynia in rats; test: Cold allodynia in vivo assay (chronic constriction injury), acute studies; set-up: species or system rat; details: subcutaneous; for ED50: Rattus norvegicus, sc
Experimental: This assay determines the effectiveness of compounds in relieving one of the symptoms of neuropathic pain produced by unilateral mononeuropathy, namely cold allodynia. Unilateral mononeuropathy was produced in rats using the Chronic Constriction Injury model performed essentially as described by Bennet and Xie, Pain, (1988) 33:87-107. Briefly, the rats were anesthetized with an intraperitoneal dose of pentobarbital sodium (65 mg/kg) with additional doses of anesthetic given as needed. The lateral aspect of each rat's hind limb was shaved and scrubbed with Novasan. Using aseptic technique, an incision was made on the lateral aspect of the hind limb at the mid-thigh level. The biceps femoris was bluntly dissected to expose the sciatic nerve. On the right hind limb of each rat, four loosely tied ligatures were made around the sciatic nerve approximately 1-2 millimeters apart. On the left side of each rat, an identical dissection was performed except that the sciatic nerve was not ligated. The muscle was closed with a continuous suture pattern, and the skin was closed with wound clips. Each rat was placed individually into a plexiglass chamber with a metal plate 6 cm from the bottom. This chamber was filled with ice water to a depth of 2.5 cm above the metal plate, with the temperature of the bath maintained at 0° C. throughout the experiment. A timer was started, and the rat's response latency was measured to the nearest tenth of a second. A "response" was defined as a rapid withdrawal of the right ligated hindpaw completely out of the water while the animal was stationary and not pivoting. An exaggerated limp while the animal was walking was not scored as a response. Maximum immersion time was 20 seconds with a 20 minute interval between trials. The screening criteria were 1) the average of two trials was less than or equal to 13 seconds, and 2) there was consistency across the two trial scores. Animals were screened for hypersensitivity to cold on post-surgery days 4 through 10, and selected for inclusion in dose-response studies based on the criteria described above. The pre-dose screening values were used as the animal's baseline cold allodynia scores. For acute studies, the animals received either subcutaneous or oral injections and were tested for cold allodynia at 1, 3, and sometimes 5 hours post-dose. The selection of doses was similar to that of Example 12C.

[2] = test system: voltage-gated sodium channels ([3H]BTX binding, rat heart); test: [3H]BTX binding assay, rat heart membranes
Experimental: (§1) The following assays characterize the interaction of the compounds of Formula I with ligand binding sites on voltage-gated sodium channels.
(§2) Frozen tissues were obtained from Pel-Freez Biologicals (Rogers, AR). Tissues were homogenized in 10 volumes of a Tris-sucrose buffer (10 mM Tris-HCl, 250 mM sucrose, pH 7.4 at 4° C.) using 10 strokes with a glass-glass, hand-held homogenizer. The homogenates were filtered through nylon mesh and then centrifuged at 1,000×g for 15 minutes. The pellets were resuspended in a Hepes buffer (50 mM Hepes, 130 mM choline chloride, 5 mM glucose, 5.4 mM KCl, pH 7.4 at 4° C.). The resuspended pellets were centrifuged at 1,000×g for 15 minutes, resuspended in a Hepes buffer (50 mM Hepes, 130 mM choline chloride, 5 mM glucose, 5.4 mM KCl, pH 7.4 at 25° C.) and, frozen at -70° C. until used in binding assays.
(§3) Cell membranes prepared as in Example 10A above were incubated with 16 nM [^3 H]BTX in 250 μl of Hepes buffer (50 mM Hepes, 130 mM choline chloride, 5 mM glucose, 5.4 mM KCl, pH 7.4 at 25° C.). Nonspecific binding was defined in the presence of 1 mM veratridine. Unless otherwise specified, PbTx (0.1 μM) and LqTx (50 μg/ml) were included in the assays. […] Filters were rinsed with 3×1 ml of ice cold 50 mM Tris-HCl (pH 7.4 at 4° C.) and the bound radioactivity was determined by scintillation counting (Packard Top-count).

[3] = test system: human heart (hH1a) sodium channel; test: [14C]Guanidinium ion influx assay, human heart (hH1a) sodium channel in Chinese hamster lung cells; type: cell-based
Experimental: Chinese hamster ovary cells stably expressing the rat brain type IIA sodium channel subunit were maintained in RPMI 1640 with 10% fetal bovine serum and […] G-418. Chinese hamster lung cells stably expressing the human heart (hH1a) sodium channel subunit were maintained in DMEM with 5% fetal bovine serum and 300 μg/ml G-418. Both cells were subcultured and grown to confluence in 24-well plates 2-3 days before each experiment. After the growth medium was removed, the cells were washed with warm buffer (25 mM Hepes-Tris, 135 mM choline chloride, 5.4 mM potassium chloride, 0.98 mM magnesium sulfate, 5.5 mM glucose, and 1 mg/ml BSA, pH 7.4) and incubated in buffer on a 36° C. slide warmer for approximately 10 minutes. Various concentrations of the test compounds or standard sodium channel blockers (10 μl) and then veratridine (100 μM) were added to each well. After the cells were exposed to veratridine for 5 minutes, 5 μM of [^14 C]guanidinium was added, incubated with the radioligand, washed with 4 ml of ice-cold buffer, and dissolved in 0.1N sodium hydroxide. The radioactivity and the protein concentration of each cell lysate were determined by liquid scintillation counting and the protein assay using Pierce BCA reagent.

[4] = test system: local anesthetic site of the sodium channel in rat brain cortex membranes; test: [3H]PD85639 binding assay
Experimental: as §1, §2
Membranes as prepared in Example 10A above were incubated with 3 nM [^3 H]PD 85639 in 250 μl of Hepes buffer (50 mM Hepes, 130 mM choline chloride, 5 mM glucose, 5.4 mM KCl, pH 7.4 at 25° C. with Tris base). Nonspecific binding was defined in the presence of 0.1 mM PD85639. […] Filters were rinsed with 3×1 ml of ice cold 50 mM Tris-HCl (pH 7.4 at 4° C.) and the bound radioactivity was determined by scintillation counting (Packard Top-count).

[5] = test system: voltage-gated sodium channels ([3H]BTX binding, rat cortex); test: [3H]BTX binding assay, rat cortex membranes
Experimental: as §1, §2
Nonspecific binding was defined in the presence of 1 mM veratridine. Unless otherwise specified, PbTx (0.1 μM) and LqTx (50 μg/ml) were included in the assays. Membranes were incubated for 60 minutes at 25° C. and then filtered using GF/B glass fiber filters that had been pretreated with 0.3% PEI. Filters were rinsed with 3×1 ml of ice cold 50 mM Tris-HCl (pH 7.4 at 4° C.) and the bound radioactivity was determined by scintillation counting (Packard Top-count).

[6] = test system: voltage-gated sodium channels ([3H]BTX binding, rat dorsal root ganglion); test: [3H]BTX binding assay, rat dorsal root ganglion membranes
Experimental: as §1, §2, §3

[7] = cold allodynia, acute, 1 hr, read-out: ED50 1 hr
[8] = cold allodynia, acute, in words

Compound | ED50 [1, 7] [mg/kg] | Emax 1 hr ([1]; cold allodynia, acute, 1 hr) [%] | anti-allodynic effect, acute dosing ([1]; 5 mg/kg, 1, 3 or 5 hours post-dose) | inhibition of [3H]BTX binding [2] | inhibition of veratridine-stimulated [14C]Guanidinium ion influx [3] | inhibition of [3H]PD85639 binding to the local anesthetic site [4] | potency in rat cortex greater than in rat heart or rat dorsal root ganglion ([5]; [3H]BTX binding, rat cortex vs rat heart or dorsal root ganglion) | inhibition of [3H]BTX binding ([5]; rat cortex membranes) | inhibition of [3H]BTX binding [6] | ED50 ([1]; cold allodynia, acute, 3 hr, read-out: ED50 3 hr) [mg/kg] | Emax 3 hr ([1]; cold allodynia, acute, 3 hr) [%] | duration of action in vivo compared with racemate, (S)-enantiomer, or II [1, 8] | maximal analgesic activity (Emax) compared with III or IV [1, 8] | maximal analgesic activity compared with racemate, (S)-enantiomer, or II [1, 8] | potency (ED50) comparison of (R)-isomers [1, 8] | potency of (R)- versus (S)-enantiomer in inhibiting [3H]BTX binding ([5]; rat brain cortex membranes)
CCNC(C)COc1c(C)cccc1C (racemic) [Formula I racemate, [2-(2,6-dimethylphenoxy)-1-methylethyl]-ethylamine] | 15.7 | 82 | no significant anti-allodynic effects | inhibited | inhibited | inhibited | approximately 10 fold | inhibited | inhibited |  |  |  |  |  |  | 
CCN[C@H](C)COc1c(C)cccc1C [Formula I (R)-, (R)-[2-(2,6-dimethylphenoxy)-1-methylethyl]-ethylamine] | 37 | 91 |  |  |  |  |  |  |  | 23.4 | 87 | longer duration of action | significantly greater maximal analgesic activity | greater maximal analgesic activity | comparable potency | no difference in the potencies
